Reference: patent US10189803B2, “Synthesis of therapeutic and diagnostic drugs centered on regioselective and stereoselective ring opening of aziridinium ions” (ILLINOIS INSTITUTE OF TECHNOLOGY, priority 2008, dated 2019)
Values joined by “and” are separate entries in the source; they are usually repeats but may differ in a detail not shown here. Equal values may be shown once.

Legend:
[1] = In vitro serum stability of radiolabeled C-NE3TA complexes in human serum (SE-HPLC); format: in vitro ADME; details: 37° C., up to 11 days
Description: C-NE3TA was radiolabeled with ^90Y, ^177Lu, ^203Pb, ^205/6Bi, or ^153Gd as previously described (Chong, H. S.; Milenic, D. E.; Garmestani, K.; Brady, E. D.; Arora, H.; Pfiester, C.; Brechbiel, M. W., Nucl. Med. Biol. 2006, 33, 459-67; Chong H S, Garmestani K, Bryant Jr., L H Milenic D E, Overstreet T, Birch N, Le N, Brady E D, Brechbiel M W. J. Med. Chem. 2006, 49, 2055-2062). In vitro serum stability of the radiolabeled complexes purified via ion-exchange chromatography was performed to determine if C-NE3TA labeled with the radioisotopes remained stable without transchelation or loss of their respective radionuclide in human serum. This was assessed by measuring the transfer of radionuclide from the complex to serum proteins over the course of 11 days.
In vitro stability of the radiolabeled metal complexes. The stability of the purified radiolabeled complexes was evaluated in human serum (Gemini Bioproducts, Woodland, Calif.) for up to 11 days. The serum stability of the radiolabeled complexes was assessed by measuring the transfer of the radionuclide from each complex to serum proteins using SE-HPLC methods. Radiolabeled complexes were diluted to an appropriate volume that allowed for preparation of multiple samples containing 5-10 μCi and were filter-sterilized using a Millex-GV 0.22 μm filter. This stock solution was then mixed with 1400 μL of sterile normal human serum. Aliquots (200 μL) were drawn and separated into individual tubes for subsequent analysis using aseptic technique. The samples were incubated at 37° C., and at designated intervals, subjected to analysis by SE-HPLC. Samples were loaded onto the HPLC and eluted with PBS, pH 7.4 isocratically at 1 mL/min. […] Radioactivity associated with a transfer to serum proteins generally appeared at ˜6 min.

[2] = In vivo biodistribution of radiolabeled complexes in normal athymic mice; details: for percent injected dose per gram, Blood / percent injected dose per gram, Femur / percent injected dose per gram, Heart / percent injected dose per gram, Kidney / percent injected dose per gram, Liver / percent injected dose per gram, Lung / percent injected dose per gram, Spleen / percent injected dose per gram, Liver (second Liver line of Table 7): non-tumor bearing mice, ± SD
Description: The in vivo stability of the radiolabeled complexes was evaluated by performing biodistribution studies in normal athymic mice. Selected organs and the blood were harvested at five time points, 0.5, 1, 4, 8, and 24 h post-injection and the radioactivity measured. […] C-NE3TA radiolabeled with ^153Gd was almost completely cleared from blood, liver, spleen, lung, heart, and femur in less than 4 hours, and radioactivity level in the kidney was 0.16%±0.11 ID/g at 24 hour post-injection (Table 9).
In vivo biodistribution studies oh the radiolabeled metal complexes. Female athymic mice were obtained from Charles River Laboratories (Wilmington, Mass.) at 4-6 weeks of age. The pH of the radiolabeled ligands was adjusted to pH ˜7.0 with 0.5 M sodium bicarbonate (pH 10.5) and diluted in phosphate-buffered saline. The radiolabeled ligands ([…] for ^86Y, ^205/6Bi, ^177Lu, and ^203Pb) were administered to the mice in 200 μL of solution via tail vein injection. The mice (5 per data point) were sacrificed by exsanguination at 0.5, 1, 4, 8, and 24 h. Blood and the major organs were harvested, wet-weighed and the radioactivity measured in a γ-scintillation counter (1480 Wizard, Perkin Elmer). The percent injected dose per gram (% ID/g) was determined for each tissue. The values presented are the mean and standard deviation for each tissue.

## O=C(O)CNC(Cc1ccc([N+](=O)[O-])cc1)CN1CCN(CC(=O)O)CCN(CC(=O)O)CC1.[153Gd] (stereo not drawn) [^153Gd-C-NE3TA]
[1]
  stability in human serum (in words): no measurable loss of radioactivity
[2]; 0.50 hr
  percent injected dose per gram, Blood: 1.41 ± 0.57 % ID/g
  percent injected dose per gram, Femur: 0.43 ± 0.14 % ID/g
  percent injected dose per gram, Heart: 0.43 ± 0.16 % ID/g
  percent injected dose per gram, Kidney: 4.28 ± 1.33 % ID/g
  percent injected dose per gram, Liver: 1.74 ± 0.69 % ID/g
  percent injected dose per gram, Lung: 0.91 ± 0.28 % ID/g
  percent injected dose per gram, Spleen: 0.50 ± 0.37 % ID/g
[2]; 1.00 hr
  percent injected dose per gram, Blood: 0.20 ± 0.08 % ID/g
  percent injected dose per gram, Femur: 1.30 ± 0.58 % ID/g
  percent injected dose per gram, Heart: 0.14 ± 0.06 % ID/g
  percent injected dose per gram, Kidney: 1.13 ± 0.12 % ID/g
  percent injected dose per gram, Liver: 0.58 ± 0.22 % ID/g
  percent injected dose per gram, Lung: 0.32 ± 0.09 % ID/g
  percent injected dose per gram, Spleen: 0.24 ± 0.05 % ID/g
[2]; 4.00 hr
  percent injected dose per gram, Blood: 0.00 ± 0.00 % ID/g
  percent injected dose per gram, Femur: 0.02 ± 0.01 % ID/g
  percent injected dose per gram, Heart: 0.01 ± 0.00 % ID/g
  percent injected dose per gram, Kidney: 0.52 ± 0.04 % ID/g
  percent injected dose per gram, Liver: 0.03 ± 0.01 % ID/g
  percent injected dose per gram, Lung: 0.03 ± 0.00 % ID/g
  percent injected dose per gram, Spleen: 0.02 ± 0.00 % ID/g
[2]; 8.00 hr
  percent injected dose per gram, Blood: 0.00 ± 0.00 % ID/g
  percent injected dose per gram, Femur: 0.02 ± 0.00 % ID/g
  percent injected dose per gram, Heart: 0.01 ± 0.00 % ID/g
  percent injected dose per gram, Kidney: 0.38 ± 0.06 % ID/g
  percent injected dose per gram, Liver: 0.02 ± 0.00 % ID/g
  percent injected dose per gram, Lung: 0.02 ± 0.00 % ID/g
  percent injected dose per gram, Spleen: 0.02 ± 0.00 % ID/g
[2]; 24.00 hr
  percent injected dose per gram, Blood: 0.00 ± 0.00 % ID/g
  percent injected dose per gram, Femur: 0.01 ± 0.00 % ID/g
  percent injected dose per gram, Heart: 0.13 ± 0.27 % ID/g
  percent injected dose per gram, Kidney: 0.16 % ID/g and 0.16 ± 0.11 % ID/g
  percent injected dose per gram, Liver: 0.02 ± 0.01 % ID/g
  percent injected dose per gram, Lung: 0.01 ± 0.01 % ID/g
  percent injected dose per gram, Spleen: 0.01 ± 0.01 % ID/g

## O=C(O)CNC(Cc1ccc([N+](=O)[O-])cc1)CN1CCN(CC(=O)O)CCN(CC(=O)O)CC1.[177Lu] (stereo not drawn) [^177Lu-C-NE3TA]
[1]
  stability in human serum (in words): no measurable loss of radioactivity
[2]; 0.50 hr
  percent injected dose per gram, Blood: 0.93 ± 0.30 % ID/g
  percent injected dose per gram, Femur: 1.06 ± 1.35 % ID/g
  percent injected dose per gram, Heart: 0.37 ± 0.08 % ID/g
  percent injected dose per gram, Kidney: 2.78 ± 0.99 % ID/g
  percent injected dose per gram, Liver: 0.82 ± 0.27 % ID/g
  percent injected dose per gram, Lung: 0.87 ± 0.22 % ID/g
  percent injected dose per gram, Spleen: 0.33 ± 0.08 % ID/g
[2]; 1.00 hr
  percent injected dose per gram, Blood: 0.31 ± 0.04 % ID/g
  percent injected dose per gram, Femur: 0.39 ± 0.13 % ID/g
  percent injected dose per gram, Heart: 0.19 ± 0.09 % ID/g
  percent injected dose per gram, Kidney: 1.57 ± 0.52 % ID/g
  percent injected dose per gram, Liver: 0.69 ± 0.20 % ID/g
  percent injected dose per gram, Lung: 0.42 ± 0.16 % ID/g
  percent injected dose per gram, Spleen: 0.28 ± 0.20 % ID/g
[2]; 4.00 hr
  percent injected dose per gram, Blood: 0.12 ± 0.02 % ID/g
  percent injected dose per gram, Femur: 0.36 ± 0.11 % ID/g
  percent injected dose per gram, Heart: 0.08 ± 0.02 % ID/g
  percent injected dose per gram, Kidney: 1.34 ± 0.09 % ID/g
  percent injected dose per gram, Liver: 0.50 ± 0.02 % ID/g
  percent injected dose per gram, Lung: 0.17 ± 0.03 % ID/g
  percent injected dose per gram, Spleen: 0.19 ± 0.07 % ID/g
[2]; 8.00 hr
  percent injected dose per gram, Blood: 0.06 ± 0.01 % ID/g
  percent injected dose per gram, Femur: 0.28 ± 0.15 % ID/g
  percent injected dose per gram, Heart: 0.10 ± 0.11 % ID/g
  percent injected dose per gram, Kidney: 1.16 ± 0.19 % ID/g
  percent injected dose per gram, Liver: 0.36 ± 0.05 % ID/g
  percent injected dose per gram, Lung: 0.15 ± 0.03 % ID/g
  percent injected dose per gram, Spleen: 0.13 ± 0.02 % ID/g
[2]; 24.00 hr
  percent injected dose per gram, Blood: 0.01 ± 0.00 % ID/g
  percent injected dose per gram, Femur: 0.38 ± 0.10 % ID/g
  percent injected dose per gram, Heart: 0.02 ± 0.01 % ID/g
  percent injected dose per gram, Kidney: 0.84 ± 0.08 % ID/g
  percent injected dose per gram, Liver: 0.31 ± 0.04 % ID/g
  percent injected dose per gram, Lung: 0.07 ± 0.03 % ID/g
  percent injected dose per gram, Spleen: 0.12 ± 0.05 % ID/g

## O=C(O)CNC(Cc1ccc([N+](=O)[O-])cc1)CN1CCN(CC(=O)O)CCN(CC(=O)O)CC1.[90Y] (stereo not drawn) [^90Y-C-NE3TA]
[1]
  stability in human serum (in words): no measurable loss of radioactivity
[2]; 0.50 hr
  percent injected dose per gram, Blood: 1.86 ± 1.92 % ID/g
  percent injected dose per gram, Femur: 1.19 ± 0.48 % ID/g
  percent injected dose per gram, Heart: 0.79 ± 0.52 % ID/g
  percent injected dose per gram, Kidney: 2.58 ± 1.04 % ID/g
  percent injected dose per gram, Liver: 1.65 ± 0.59 % ID/g
  percent injected dose per gram, Liver (second Liver line of Table 7): 0.48 ± 0.08 % ID/g
  percent injected dose per gram, Lung: 1.64 ± 0.99 % ID/g
  percent injected dose per gram, Spleen: 0.70 ± 0.15 % ID/g
[2]; 1.00 hr
  percent injected dose per gram, Blood: 0.76 ± 1.09 % ID/g
  percent injected dose per gram, Femur: 0.82 ± 0.26 % ID/g
  percent injected dose per gram, Heart: 0.38 ± 0.31 % ID/g
  percent injected dose per gram, Kidney: 2.00 ± 2.32 % ID/g
  percent injected dose per gram, Liver: 0.88 ± 0.59 % ID/g
  percent injected dose per gram, Liver (second Liver line of Table 7): 0.32 ± 0.07 % ID/g
  percent injected dose per gram, Lung: 1.16 ± 0.65 % ID/g
  percent injected dose per gram, Spleen: 0.47 ± 0.26 % ID/g
[2]; 4.00 hr
  percent injected dose per gram, Blood: 0.05 ± 0.05 % ID/g
  percent injected dose per gram, Femur: 0.30 ± 0.04 % ID/g
  percent injected dose per gram, Heart: 0.06 ± 0.02 % ID/g
  percent injected dose per gram, Kidney: 0.74 ± 0.15 % ID/g
  percent injected dose per gram, Liver: 0.17 ± 0.05 % ID/g
  percent injected dose per gram, Liver (second Liver line of Table 7): 0.29 ± 0.03 % ID/g
  percent injected dose per gram, Lung: 0.10 ± 0.04 % ID/g
  percent injected dose per gram, Spleen: 0.13 ± 0.08 % ID/g
[2]; 8.00 hr
  percent injected dose per gram, Blood: 0.02 ± 0.00 % ID/g
  percent injected dose per gram, Femur: 0.22 ± 0.06 % ID/g
  percent injected dose per gram, Heart: 0.05 ± 0.01 % ID/g
  percent injected dose per gram, Kidney: 0.49 ± 0.10 % ID/g
  percent injected dose per gram, Liver: 0.20 ± 0.16 % ID/g
  percent injected dose per gram, Liver (second Liver line of Table 7): 0.22 ± 0.03 % ID/g
  percent injected dose per gram, Lung: 0.16 ± 0.22 % ID/g
  percent injected dose per gram, Spleen: 0.07 ± 0.02 % ID/g
[2]; 24.00 hr
  percent injected dose per gram, Blood: 0.00 ± 0.00 % ID/g
  percent injected dose per gram, Femur: 0.08 ± 0.02 % ID/g
  percent injected dose per gram, Heart: 0.02 ± 0.01 % ID/g
  percent injected dose per gram, Kidney: 0.35 ± 0.05 % ID/g
  percent injected dose per gram, Liver: 0.10 ± 0.03 % ID/g
  percent injected dose per gram, Liver (second Liver line of Table 7): 0.17 ± 0.02 % ID/g
  percent injected dose per gram, Lung: 0.23 ± 0.36 % ID/g
  percent injected dose per gram, Spleen: 0.07 ± 0.02 % ID/g
[2]; normal athymic mice
  blood and organ clearance (in words): rapid blood and liver clearance
